Test results taken from patent US11926614B2, “1,2,4-triazole derivatives as tankyrase inhibitors” (priority 2018, dated 2024).
Like-named read-outs stand apart in the source and are kept apart here.

Columns and labels:
[1] = biological target: TNKS2 (Homo sapiens (Human), UniProt Q9H2K2); experiment: Biochemical IC50 TNKS2
Source text: (§1) XLfit (idbs) was used to determine the IC50-values in inhibition experiments. The following formula was chosen to fit the data points (Langmuir Binding Isotherm): fit=((A+(B*x))+4(C−B)*(1−exp((−1*D)*x)))/D)), res=(y−fit)

[2] = tested on: HEK293; experiment: Cellular IC50 HEK293; type: cell-based
Source text: as §1

[3] = read-out: Biochemical IC50 TNKS2
[4] = Homo sapiens, HEK293, HEK293; read-out: Cellular IC50 HEK293
[5] = Homo sapiens, HEK293, read-out: Cellular IC50 HEK293

TNKS2, sequence (Q9H2K2 whole entry): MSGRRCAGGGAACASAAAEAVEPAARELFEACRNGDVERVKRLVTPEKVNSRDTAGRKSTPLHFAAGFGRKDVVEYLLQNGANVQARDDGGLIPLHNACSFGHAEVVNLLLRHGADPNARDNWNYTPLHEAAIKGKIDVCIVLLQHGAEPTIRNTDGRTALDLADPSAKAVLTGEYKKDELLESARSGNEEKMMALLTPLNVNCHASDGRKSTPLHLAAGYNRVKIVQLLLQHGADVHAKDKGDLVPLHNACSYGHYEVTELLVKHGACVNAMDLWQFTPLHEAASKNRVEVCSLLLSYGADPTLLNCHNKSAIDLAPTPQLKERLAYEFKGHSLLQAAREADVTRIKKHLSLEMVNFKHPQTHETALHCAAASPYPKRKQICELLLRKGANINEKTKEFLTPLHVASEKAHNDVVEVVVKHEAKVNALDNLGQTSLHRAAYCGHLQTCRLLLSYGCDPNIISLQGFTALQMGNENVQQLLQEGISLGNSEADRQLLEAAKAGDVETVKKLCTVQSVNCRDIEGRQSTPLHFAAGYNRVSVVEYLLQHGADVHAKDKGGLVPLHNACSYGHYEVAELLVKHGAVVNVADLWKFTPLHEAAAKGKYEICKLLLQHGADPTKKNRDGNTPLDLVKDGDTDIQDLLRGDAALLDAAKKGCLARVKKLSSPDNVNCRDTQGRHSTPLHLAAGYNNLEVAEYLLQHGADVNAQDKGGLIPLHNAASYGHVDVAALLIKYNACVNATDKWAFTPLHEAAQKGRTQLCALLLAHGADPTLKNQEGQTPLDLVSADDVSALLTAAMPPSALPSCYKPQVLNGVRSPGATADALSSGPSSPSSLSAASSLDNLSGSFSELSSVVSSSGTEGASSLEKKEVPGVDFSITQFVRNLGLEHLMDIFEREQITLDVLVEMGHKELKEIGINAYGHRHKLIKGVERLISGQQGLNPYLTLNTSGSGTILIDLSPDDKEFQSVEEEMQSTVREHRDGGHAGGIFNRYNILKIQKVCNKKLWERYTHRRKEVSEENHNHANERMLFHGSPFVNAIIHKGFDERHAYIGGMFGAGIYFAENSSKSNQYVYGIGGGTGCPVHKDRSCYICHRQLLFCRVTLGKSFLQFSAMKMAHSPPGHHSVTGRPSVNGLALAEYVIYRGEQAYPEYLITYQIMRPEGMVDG

CCOc1ccc(-c2nnc([C@H]3C[C@H](NC(=O)c4cc5ccncc5[nH]4)C3)n2-c2ccccc2F)nc1 [Example 126, N-((1S,3r)-3-(5-(5-ethoxypyridin-2-yl)-4-(2-fluorophenyl)-4H-1,2,4-triazol-3-yl)cyclobutyl)-1H-pyrrolo[2,3-c]pyridine-2-carboxamide]
IC50 [1, 3]: 4.1 nM | IC50 [2, 4]: 27 nM

CCOc1ccc(-c2nnc([C@H]3C[C@H](NC(=O)c4cn(C)cn4)C3)n2-c2ccccc2F)nc1 [Example 117, N-((1S,3r)-3-(5-(5-ethoxypyridin-2-yl)-4-(2-fluorophenyl)-4H-1,2,4-triazol-3-yl)cyclobutyl)-1-methyl-1H-imidazole-4-carboxamide]
IC50 [1, 3]: 87 nM | IC50 [2, 4]: 550 nM

Cc1ccc(-n2c(-c3nccs3)nnc2[C@H]2C[C@H](NC(=O)c3ccccn3)C2)s1 [Example 88, N-((1r,3r)-3-(4-(5-methylthiophen-2-yl)-5-(thiazol-2-yl)-4H-1,2,4-triazol-3-yl)cyclobutyl)picolinamide]
IC50 [1, 3]: 47 nM | IC50 [2, 4]: 93 nM

CCOc1ccc(-c2nnc([C@H]3C[C@H](NC(=O)c4cccc5cn[nH]c45)C3)n2-c2ccccc2F)nc1 [Example 156, N-((1S,3r)-3-(5-(5-ethoxypyridin-2-yl)-4-(2-fluorophenyl)-4H-1,2,4-triazol-3-yl)cyclobutyl)-1H-indazole-7-carboxamide]
IC50 [1, 3]: 21 nM | IC50 [2, 4]: 67 nM

O=C(N[C@H]1C[C@H](c2nnc(-c3ccccc3)n2-c2ccccc2F)C1)c1ccccn1 [Example 174, N-((1S,3r)-3-(4-(2-fluorophenyl)-5-phenyl-4H-1,2,4-triazol-3-yl)cyclobutyl)picolinamide]
IC50 [1, 3]: 216 nM | IC50 [2, 5]: 789 nM

O=C(N[C@H]1C[C@H](c2nnc(-c3nccs3)n2-c2ccccn2)C1)c1cccc2cccnc12 [Example 38, N-((1r,3r)-3-(4-(pyridin-2-yl)-5-(thiazol-2-yl)-4H-1,2,4-triazol-3-yl)cyclobutyl)quinoline-8-carboxamide]
IC50 [1, 3]: 45 nM | IC50 [2, 4]: 46 nM

[2H]C([2H])([2H])C([2H])([2H])Oc1ccc(-c2nnc([C@H]3C[C@H](NC(=O)c4cnn5ccccc45)C3)n2-c2ccccc2F)nc1 [Example 142, N-((1S,3r)-3-(5-(5-(ethoxy-d5)pyridin-2-yl)-4-(2-fluorophenyl)-4H-1,2,4-triazol-3-yl)cyclobutyl)pyrazolo[1,5-a]pyridine-3-carboxamide]
IC50 [1]: 23 nM | IC50 [2, 4]: 55 nM

CCOc1ccc(-c2nnc(C34CC(NC(=O)c5ccnc6cccnc56)(C3)C4)n2-c2ccccn2)nc1 [Example 122, N-(3-(5-(5-ethoxypyridin-2-yl)-4-(pyridin-2-yl)-4H-1,2,4-triazol-3-yl)bicyclo[1.1.1]pentan-1-yl)-1,5-naphthyridine-4-carboxamide]
IC50 [1, 3]: 13 nM | IC50 ([2]; Homo sapiens, HEK293; read-out: Cellular IC50 HEK293): 20 nM

CS(=O)(=O)c1ccc(-c2nnc([C@H]3C[C@H](NC(=O)c4ccnc5cc(F)cnc45)C3)n2-c2ccccc2F)nc1 [Example 50, 7-fluoro-N-((1S,3r)-3-(4-(2-fluorophenyl)-5-(5-(methylsulfonyl)pyridin-2-yl)-4H-1,2,4-triazol-3-yl)cyclobutyl)-1,5-naphthyridine-4-carboxamide]
IC50 [1, 3]: 1.6 nM | IC50 [2, 4]: 0.23 nM

O=C(N[C@H]1C[C@H](c2nnc(-c3nccs3)n2-c2ccccc2)C1)c1ccnc2cccnc12 [Example 33, N-((1r,3r)-3-(4-phenyl-5-(thiazol-2-yl)-4H-1,2,4-triazol-3-yl)cyclobutyl)-1,5-naphthyridine-4-carboxamide]
IC50 [1, 3]: 3.1 nM | IC50 [2, 4]: 4.3 nM

[2H]C([2H])([2H])C([2H])([2H])Oc1ccc(-c2nnc([C@H]3C[C@H](NC(=O)c4cccc5cc(F)cnc45)C3)n2-c2ccccc2F)nc1 [Example 141, N-((1S,3r)-3-(5-(5-(ethoxy-d5)pyridin-2-yl)-4-(2-fluorophenyl)-4H-1,2,4-triazol-3-yl)cyclobutyl)-3-fluoroquinoline-8-carboxamide]
IC50 [1]: 2.9 nM | IC50 [2, 4]: 1.1 nM

O=C(N[C@H]1C[C@H](c2nnc(-c3ccncn3)n2-c2ccccc2Cl)C1)c1ccncn1 [Example 11, N-((1S,3r)-3-(4-(2-chlorophenyl)-5-(pyrimidin-4-yl)-4H-1,2,4-triazol-3-yl)cyclobutyl)pyrimidine-4-carboxamide]
IC50 [1, 3]: 3.5 nM | IC50 [2, 4]: 4 nM

CCOc1ccc(-c2nnc([C@H]3C[C@H](NC(=O)c4ccc5cnccc5n4)C3)n2-c2ccccc2F)nc1 [Example 97, N-((1S,3r)-3-(5-(5-ethoxypyridin-2-yl)-4-(2-fluorophenyl)-4H-1,2,4-triazol-3-yl)cyclobutyl)-1,6-naphthyridine-2-carboxamide]
IC50 [1, 3]: 2.5 nM | IC50 [2, 4]: 7.5 nM

O=C(N[C@H]1C[C@H](c2nnc(-c3nccs3)n2-c2ccccn2)C1)c1ccnc2cccnc12 [Example 37, N-((1r,3r)-3-(4-(pyridin-2-yl)-5-(thiazol-2-yl)-4H-1,2,4-triazol-3-yl)cyclobutyl)-1,5-naphthyridine-4-carboxamide]
IC50 [1, 3]: 25 nM | IC50 [2, 4]: 88 nM

CCOc1ccc(-c2nnc([C@H]3C[C@H](NC(=O)c4ccnc5cccnc45)C3)n2-c2ccccc2)nc1 [Example 69, N-((1r,3r)-3-(5-(5-ethoxypyridin-2-yl)-4-phenyl-4H-1,2,4-triazol-3-yl)cyclobutyl)-1,5-naphthyridine-4-carboxamide]
IC50 [1, 3]: 2 nM | IC50 [2, 4]: 0.712 nM

CCOc1ccc(-c2nnc([C@H]3C[C@H](NC(=O)c4ccnc5cc(F)cnc45)C3)n2-c2ccc(C)s2)nc1 [Example 84, N-((1r,3r)-3-(5-(5-ethoxypyridin-2-yl)-4-(5-methylthiophen-2-yl)-4H-1,2,4-triazol-3-yl)cyclobutyl)-7-fluoro-1,5-naphthyridine-4-carboxamide]
IC50 [1, 3]: 1.6 nM | IC50 [2, 5]: 1 nM

O=C(N[C@H]1C[C@H](c2nnc(-c3ccncn3)n2-c2ccccc2Cl)C1)c1ccncc1 [Example 8, N-((1S,3r)-3-(4-(2-chlorophenyl)-5-(pyrimidin-4-yl)-4H-1,2,4-triazol-3-yl)cyclobutyl)isonicotinamide]
IC50 [1, 3]: 57 nM | IC50 [2, 4]: 70 nM

O=C(N[C@H]1C[C@H](c2nnc(-c3nccs3)n2-c2ccccn2)C1)c1ccnc2cc(F)cnc12 [Example 39, 7-fluoro-N-((1r,3r)-3-(4-(pyridin-2-yl)-5-(thiazol-2-yl)-4H-1,2,4-triazol-3-yl)cyclobutyl)-1,5-naphthyridine-4-carboxamide]
IC50 [1, 3]: 28 nM | IC50 [2, 4]: 16 nM

CCOc1ccc(-c2nnc(C34CC(NC(=O)c5ccnc6cccnc56)(C3)C4)n2-c2ccccc2F)nc1 [Example 62, N-(3-(5-(5-ethoxypyridin-2-yl)-4-(2-fluorophenyl)-4H-1,2,4-triazol-3-yl)bicyclo[1.1.1]pentan-1-yl)-1,5-naphthyridine-4-carboxamide]
IC50 [1, 3]: 1.3 nM | IC50 [2, 4]: 2.1 nM

O=C(N[C@H]1C[C@H](c2nnc(-c3nccs3)n2-c2ccccc2F)C1)c1ccccc1 [Example 27, N-((1S,3r)-3-(4-(2-fluorophenyl)-5-(thiazol-2-yl)-4H-1,2,4-triazol-3-yl)cyclobutyl)benzamide]
IC50 [1, 3]: 250 nM | IC50 [2, 4]: 470 nM

O=C(N[C@H]1C[C@H](c2nnc(-c3ccccn3)n2-c2ccccc2F)C1)c1cccc2nccnc12 [Example 193, N-((1S,3r)-3-(4-(2-fluorophenyl)-5-(pyridin-2-yl)-4H-1,2,4-triazol-3-yl)cyclobutyl)quinoxaline-5-carboxamide]
IC50 [1, 3]: 1.6 nM | IC50 [2, 5]: 0.286 nM

CCOc1ccc(-c2nnc([C@H]3C[C@H](NC(=O)c4cccc5cccnc45)C3)n2-c2ccccc2F)nc1 [Example 60, N-((1S,3r)-3-(5-(5-ethoxypyridin-2-yl)-4-(2-fluorophenyl)-4H-1,2,4-triazol-3-yl)cyclobutyl)quinoline-8-carboxamide]
IC50 [1, 3]: 2.1 nM | IC50 [2, 4]: 1.1 nM

Cc1cccc(-c2nnc([C@H]3C[C@H](NC(=O)c4cccc5nccnc45)C3)n2-c2ccccc2F)n1 [Example 201, N-((1S,3r)-3-(4-(2-fluorophenyl)-5-(6-methylpyridin-2-yl)-4H-1,2,4-triazol-3-yl)cyclobutyl)quinoxaline-5-carboxamide]
IC50 [1, 3]: 1.7 nM | IC50 [2, 5]: 1.5 nM

O=C(N[C@H]1C[C@H](c2nnc(-c3ccccc3)n2-c2ccccc2F)C1)c1ccnc2cc(F)cnc12 [Example 177, 7-fluoro-N-((1S,3r)-3-(4-(2-fluorophenyl)-5-phenyl-4H-1,2,4-triazol-3-yl)cyclobutyl)-1,5-naphthyridine-4-carboxamide]
IC50 [1, 3]: 3.8 nM | IC50 [2, 4]: 25 nM

CCOc1ccc(C(=O)N[C@H]2C[C@H](c3nnc(-c4ccc(OCC)cn4)n3-c3ccccc3F)C2)nc1 [Example 58, 5-ethoxy-N-((1S,3r)-3-(5-(5-ethoxypyridin-2-yl)-4-(2-fluorophenyl)-4H-1,2,4-triazol-3-yl)cyclobutyl)picolinamide]
IC50 [1, 3]: 2 nM | IC50 [2, 4]: 10 nM

O=C(N[C@H]1C[C@H](c2nnc(-c3ccccc3)n2-c2ccccc2F)C1)c1ccnc2cccnc12 [Example 176, N-((1S,3r)-3-(4-(2-fluorophenyl)-5-phenyl-4H-1,2,4-triazol-3-yl)cyclobutyl)-1,5-naphthyridine-4-carboxamide]
IC50 [1, 3]: 3.6 nM | IC50 [2, 4]: 28 nM

COc1ccc(C(=O)N[C@H]2C[C@H](c3nnc(-c4ccncn4)n3-c3ccccc3Cl)C2)nc1 [Example 131, N-((1R,3r)-3-(4-(2-chlorophenyl)-5-(pyrimidin-4-yl)-4H-1,2,4-triazol-3-yl)cyclobutyl)-5-methoxypicolinamide]
IC50 [1, 3]: 4.5 nM | IC50 [2, 4]: 0.66 nM

CCOc1ccc(-c2nnc([C@H]3C[C@H](NC(=O)c4cccc(C)n4)C3)n2-c2ccccc2F)nc1 [Example 119, N-((1S,3r)-3-(5-(5-ethoxypyridin-2-yl)-4-(2-fluorophenyl)-4H-1,2,4-triazol-3-yl)cyclobutyl)-6-methylpicolinamide]
IC50 [1, 3]: 5 nM | IC50 [2, 4]: 39 nM
